The nature of data set [1]: In vitro release rate of drug from polymer-coated stents into ethanol-water bath. In kind it is physicochemical. The settings on record: at 96 hours; unstirred ethanol-water bath at 37° C.; poly-dl-lactic acid coated stents, average drug load 230 μg. The method, then:
The in vitro release rate of drug from the stents into an unstirred, ethanol-water bath at 37° C. was measured and the results are shown in FIG. 4. The six curves in FIG. 4 correspond to six stents carrying a poly-dl-lactic acid polymer loaded with 42-O-(2-ethoxyethyl) rapamycin. Each stent held between about 224–235 μg of drug, with an average drug load of 230 μg. The polymer-drug coated stents were sterilized at 25 KGy or at 27.5 KGy prior to measuring the release rate.
100 mg poly (dl-lactide) was dissolved into 2 mL acetone at room temperature. 5 mg 42-O-(2-ethoxyethyl) rapamycin was placed in a vial and 100 μL lactide solution added. A microprocessor-controlled syringe pump was used to precision dispense 4.5 μL of the drug containing poly-dl-lactide solution to the outer surface of a metal S-Stent (available from Biosensors International Inc, Newport Beach, Calif.).

Data set [2] concerns pig coronary arteries (restenosis). The data set can be described thus: 30-day implantation of drug-eluting stents in pig coronary arteries (late loss vs injury score). The conditions noted are these: 30 days in pig vessels; for intercept of the zero injury (late loss) / neointimal response to injury (slope of the regression line of late loss vs injury score): FIG. 10.
Experimental: After preparation of the stents having a polymer-drug coating, they were implanted, as described in Example 5, into pigs for a thirty day period.
As described in Example 5, nine stents eluting 42-O-(2-ethoxyethyl) rapamycin from a polymer layer of poly-lactic acid were implanted in pigs and six control, bare metal stents were implanted. […] Quantitative coronary angiography was performed to measure the vessel lumen diameter immediately before and after stent placement and also 30 days later just prior to the follow-up angiogram taken at animal sacrifice. […] Percent stenosis (% stenosis) was determined from the measurements as: % Stenosis=[(RVD−MLD)/RVD]×100 where MLD is minimum lumen diameter and RVD is distal and proximal reference vessel diameter. The stent to artery ratio was also calculated from these measurements. The angiographic percent stenosis was calculated from the measurements of minimum lumen diameter obtained at the follow-up angiogram.
The photographs in FIGS. 5–9 permit determination via planimetry of the area of new tissue inside the stent after 30 days in vivo. The average thickness of new tissue formed inside the stent for each implant was determined and plotted against an injury score, also determined after the 30 day test period. A least-squares linear regression analysis of the data provides a sensitive method to compare the therapeutic benefit of different stent compositions.
The degree of vascular injury was also quantified by assigning an “injury score” based on the amount and length of tear of the different wall structures. The degree of injury was calculated as follows: • 0=intact internal elastic lamina • 1=ruptured internal elastic lamina with exposure to superficial medial layers (minor injury) • 2=ruptured internal elastic lamina with exposure to deeper medial layers (medial dissection) • 3=ruptured external elastic lamina with exposure to the adventitia. The mean injury score for each arterial segment was calculated by dividing the sum of injury scores at each stent strut site by the total number of stent struts in the proximal, middle, and distal stent sections using the method described by Schwartz et al. (J. Am. Coll. Cardiol., 19:267–274 (1992)).
After analysis of the late loss and injury scores, the average late loss as a function of injury score was plotted for the test stents in each animal. […] The stents were in place in the vessel for 30 days.
Three days prior to insertion of stents each animal received 650 mg aspirin, 500 mg ticlopidine daily, and 120 mg verapamil daily. Aspirin (325 mg) daily was given throughout the duration of the study. The animals were fasted twelve hours prior to stent placement.
For stent placement, each animal was immobilized with an intramuscular injection of 0.5 mg/kg acepromazine, 20 mg/kg ketamine, and 0.05 mg/kg atropine.
The subject of data set [3] is human smooth muscle cells. The experiment in a line: In vitro potency: growth suppression of smooth muscle cell cultures (human). It counts as cell-based. The settings on record: FIG. 2, over five orders of magnitude concentration. How it is done:
The ability of the cell culture to reproduce was assessed after drug exposure by addition of a colored reagent which causes a color change in the surviving cells, followed by cell cytometry. The ability of the cells to migrate was assessed when cells from the culture moved through a porous membrane barrier adjacent the culture, and again by staining and cell cytometry. The results of these tests are shown in FIG. 2 for human smooth muscle cells.

The test system of data set [4] is porcine smooth muscle cells. The data set can be described thus: In vitro potency: growth suppression of smooth muscle cell cultures (porcine). It counts as cell-based. The conditions noted are these: over five orders of magnitude concentration.
Data set [5] deals with pig coronary artery (restenosis after overstretch injury). The data set can be described thus: Pig coronary artery overstretch injury model with drug-eluting stents. In kind it is in vivo. The conditions noted are these: for Diameter stenosis: lower score indicates higher efficacy. How it is done:
In another study, stents carrying 42-O-(2-ethoxyethyl) rapamycin in the form of a polymer (poly-dl-lactic acid) coating were prepared for insertion into pigs with a vessel overstretch injury to the coronary artery. Comparative and control stents includes bare metal stents, stents having a polymer coating of poly-dl-lactic acid absent drug, stents carrying rapamycin in a poly-dl-lactic acid polymer coating, and stents carrying everolimus in a poly-dl-lactic acid polymer coating. The stents were inserted into vessels which seriously injured (averaging approximately 36% overstretch injury of the vessel) using an angioplasty balloon. […] In this way, it was possible to assess the relative effectiveness of the various test compounds presented to the vessels on the same metal stent/polymer platform. At the time of insertion, the extent of overstretch was recorded as a percent balloon/artery (B/A) ratio.

The conditions of data set [6]: cited from earlier work.
[7] abbreviates: drug load 225 μg, polymer coat 225 μg, stent length 15 mm.
Setting [8] is: high dose, drug load 325 μg, polymer coat 1300 μg, 6 months.
The mark [9] stands for this setting: high dose, drug load 325 μg, polymer coat 1300 μg, 28 days.
[10] abbreviates: low dose, drug load 180 μg, polymer coat 1300 μg.
The mark [11] stands for this setting: med. dose, drug load 275 μg, polymer coat 640–780 μg.

We go through four compounds from US7220755B2, “42-O-alkoxyalkyl rapamycin derivatives and compositions comprising same” (Biosensors International Group, Ltd., priority 2003, dated 2007).

Each structure is given as a SMILES string. Entries after “also recorded” stand apart in the source; their conditions may differ.

For the compound `CCOCCO[C@@H]1CC[C@@H](C[C@@H](C)[C@@H]2CC(=O)[C@H](C)/C=C(\C)[C@@H](O)[C@@H](OC)C(=O)[C@H](C)C[C@H](C)/C=C/C=C/C=C(\C)[C@@H](OC)C[C@@H]3CC[C@@H](C)[C@@](O)(O3)C(=O)C(=O)N3CCCC[C@H]3C(=O)O2)C[C@H]1OC` [42-O-(2-ethoxyethyl) rapamycin], the “drug load released into the bath” value in data set [1] was “less than half of the drug load released”. Besides, in data set [2], the “intercept of the zero injury (late loss)” value was found to be 0.126 mm and the “neointimal response to injury (slope of the regression line of late loss vs injury score)” value was determined as 0.83 mm/injury score increment. The “neointimal thickness at 30 days (late loss), comparison with other stents” value in data set [2] (FIGS. 10-11) is listed as “lower neointimal thickness at 30 days; also recorded: therapeutic effect when compared to bare, metal stents”. Further, the “inhibition of growth of smooth muscle cells” value in data set [3] is listed as “effectively inhibited growth of smooth muscle cells; also recorded: inhibited cellular growth as effectively as 42-O-hydroxy heptyl rapamycin (diamonds) or rapamycin”. In data set [4], the “inhibition of growth of smooth muscle cells” value was “effectively inhibited growth of smooth muscle cells”. In addition, the “mean lumen late loss and percent diameter stenosis, comparison with the other stents” value in data set [5] (compared to rapamycin, everolimus, bare metal and polymer-coated stents) was “lowest mean lumen late loss and percent diameter stenosis”. In addition, in data set [5] (setting [7]), the Mean lumen loss was found to be 0.62 mm, the Neointimal area was 1.30 mm^2 and the Diameter stenosis stood at 14.8%.

As to `COC1CC2CCC(C)C(O)(O2)C(=O)C(=O)N2CCCCC2C(=O)OC(C(C)CC2CCC(OCCCCCCCO)C(OC)C2)CC(=O)C(C)C=C(C)C(O)C(OC)C(=O)C(C)CC(C)C=CC=CC=C1C` (stereo not shown) [42-O-hydroxy heptyl rapamycin], in data set [2], the “intercept of the zero injury (late loss)” value worked out at 0.130 mm and the “neointimal response to injury (slope of the regression line of late loss vs injury score)” value is 0.126 mm/injury score increment.

Consider `CO[C@H]1C[C@@H]2CC[C@@H](C)[C@@](O)(O2)C(=O)C(=O)N2CCCC[C@H]2C(=O)O[C@H]([C@H](C)C[C@@H]2CC[C@@H](OCCO)[C@H](OC)C2)CC(=O)[C@H](C)/C=C(\C)[C@@H](O)[C@@H](OC)C(=O)[C@H](C)C[C@H](C)/C=C/C=C/C=C/1C` [everolimus], for which the Mean lumen loss is 1.15 mm in data set [5] (setting [8]), 0.84 mm in data set [5] (setting [9]), 1.54 mm in data set [5] (setting [10]) and 0.85 mm in data set [5] (setting [11]). The Neointimal area in data set [5] (setting [8]) was 4.18 mm^2; in data set [5] (setting [9]), 3.54 mm^2; in data set [5] (setting [10]) it was 3.41 mm^2; in data set [5] (setting [11]) it was 2.97 mm^2. For the same compound, the Diameter stenosis in data set [5] (setting [8]) is 68.5%; in data set [5] (setting [9]), 38.0%; in data set [5] (setting [10]) it was 53.0%; in data set [5] (setting [11]), 45.0%.

Take `CO[C@H]1C[C@@H]2CC[C@@H](C)[C@@](O)(O2)C(=O)C(=O)N2CCCC[C@H]2C(=O)O[C@H]([C@H](C)C[C@@H]2CC[C@@H](O)[C@H](OC)C2)CC(=O)[C@H](C)/C=C(\C)[C@@H](O)[C@@H](OC)C(=O)[C@H](C)C[C@H](C)/C=C/C=C/C=C/1C` [rapamycin]: the solubility in water in data set [6] is on record as 20 micrograms per milliliter. Besides, in data set [5] (setting [9]), the Mean lumen loss is recorded as 1.07 mm, the Neointimal area amounted to 3.75 mm^2 and the Diameter stenosis turned out to be 55.0%. For the same compound, in data set [5] (setting [10]), the Mean lumen loss was found to be 0.99 mm, the Neointimal area stood at 2.80 mm^2 and the Diameter stenosis turned out to be 43.0%.
